ChEMBL document CHEMBL1201862, “PubChem BioAssay data set” (2004)
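Briefly, cells in 96-well plates were exposed to five compound concentrations for 48 h, and endpoints were estimated by linear interpolation. GI50 = concentration required for 50% inhibition of growth.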 Active and inactive are the calls of the source. Cut-off read from the data, not from the text of the source: active = GI50 up to about 1.1 µM and inactive = higher.

Key:
Test in all cases: growth of human tumour cells (NCI), 48 h
[1] = tested on: M19-MEL
[2] = tested on: SNB-78
[3] = tested on: XF498
[4] = tested on: RXF 631
[5] = tested on: DMS-273
[6] = tested on: HOP-18
[7] = tested on: DMS-114
[8] = tested on: KM-20L2
[9] = tested on: LXFL 529

Measured: GI50

COc1ccc2c(c1)c1c3n2CCNN=C3CCC1
inactive: [1] > 100 µM | [2] > 37.7 µM | [3] > 100 µM | [4] 68.4 µM | [5] > 100 µM | [6] > 100 µM | [7] 74.6 µM | [8] > 100 µM | [9] > 100 µM

O=C(NC1C=Nc2ccccc2NC1=O)c1ccccc1Cl (stereo unspecified)
inactive: [1] 57 µM | [2] 93.1 µM | [3] 22.2 µM | [4] 22 µM | [5] 26.8 µM | [6] 48 µM | [7] 16.1 µM | [8] 55.6 µM | [9] 28.6 µM

CCCCCCCCCCCCC(CCCCCCCCCCCC)OP(=O)(O)O
inactive: [1] > 100 µM | [2] > 100 µM | [3] > 100 µM | [4] 94.4 µM | [5] > 100 µM | [6] > 100 µM | [7] > 100 µM | [8] > 100 µM | [9] > 100 µM

COc1cc(/C=C\c2ccccn2)cc(OC)c1OC
inactive: [1] 67.3 µM | [2] > 100 µM | [3] 16.2 µM | [4] > 100 µM | [5] 75 µM | [6] > 100 µM | [7] 45.6 µM | [8] 71.4 µM | [9] 70.5 µM
